Format in all cases: physicochemical
A short description of data set [1]: NIR luminescence decay lifetime monitored at 980 nm. Particulars: monitored at 980 nm; for Decay lifetime (τobs): bovine albumin (BSA), air-saturated, 0.1% DMSO. How it is done:
Emission, excitation spectra and lifetime were measured on an Edinburgh Analytical Instruments FLS980 lifetime and steady state spectrometer equipped with a 450 W Xe lamp, a 60 W microsecond flash lamp, PMT R928 for the visible emission spectrum, HAMAMATSU R5509-73 PMT with a C9940-02 cooler for the NIR emission spectrum and luminescence lifetime. Excitation and emission spectra were corrected for instrumental functions (including the correction for detector, gratings etc.). All luminescence decays were exponentially tail-fitted by monoexponential functions without deconvolution for the negligible instrumental reference function in the NIR region.

Data set [2] is described as follows: NIR luminescence quantum yield, comparative method vs YbTPP(LOEt). As to the method:
Quantum yields in solution were determined using a comparative method and the equation: Φs/Φr = (Gs/Gr) × (ηs^2/ηr^2), where the subscripts r and s denote the reference and sample respectively, Φ is the quantum yield, G is the slope from the plot of integrated emission intensity vs. absorbance, and η is the refractive index of the solvent.[79] The reference was YbTPP(LOEt) in CH2Cl2 ([…]).[53] Generally, YbTPP(LOEt) and the solution of Yb^3+ complex with 4 different concentrations were firstly prepared in the corresponding solvents. The absorbance of all the solutions at 410 nm was recorded on an Agilent 8453 UV-vis spectrometer equipped with an Agilent 89090A thermostat (±0.1 °C) and NIR emissions were recorded on an Edinburgh Analytical Instruments FLS980 lifetime and steady state spectrometer with the excitation wavelength at 410 nm under identical conditions. According to the ratio of the slope GYb – x/Gr (x = 1–5, 2c–5c), the relative quantum yield of Yb^3+ complexes could be obtained according to the equation described above. The absorbance values of all the samples and references are below 0.1 and the absorbance values undergo background correction by subtracting the average over a range from 800 to 820 nm. The integrated emission intensity integrated from 880 nm to 1150 nm was obtained by subtracting the blank (integrated emission intensity with only the pure solvent under identical conditions). The estimated error for the quantum yield measurements is 15%. For the quantum yield measured in degassed solution, solutions of Yb^3+ complexes with 4 different concentrations were degassed via 5 freeze–pump–thaw cycles. Then the measurement and calculation were the same as above.

Data set [3] is described as follows: n-octanol/water partition coefficient (log P). As to the method:
Equal volumes (2000 mL) of n-octanol and water were thoroughly mixed using an oscillator and separated after 24 h. Yb^3+ complex (0.1 mg each) was then dissolved in 40 mL of the separated n-octanol and the solution and 40 mL of water (previously separated from the mixture) was added. The new water–octanol system was allowed to equilibrate for additional 24 h. After separation, both fractions were analyzed by UV-vis spectra. The log P values were calculated with the following equation:[80]1 log P = log(Coctanol/Cwater)where Coctanol and Cwater refer to the concentrations of Yb^3+ complexes in n-octanol and water, respectively.

Data set [4] is described as follows: Stability in solution and aqueous media (absorption / NIR luminescence, dark and 405 nm laser). Particulars: pH = 5 PBS with 0.1% DMSO, 405 nm laser 0.2 W cm^–2, 4 h. The text has this:
We also measured the ^2D NMR of Yb-4 in CH3OH as an example (Fig. S75 ^†) and only one single peak was observed.
Fig. 2 (a) Spectroscopic evaluation of Yb-4 photostability in water, PBS and FBS with 0.1% DMSO under irradiation of a 405 nm laser (0.2 W cm^–2) (inset: dark stability); (b) spectroscopic evaluation of Yb-4 and Yb-4c stabilities in pH = 5 PBS with 0.1% DMSO under irradiation of a 405 nm laser (0.2 W cm^–2). Emission intensity values were referenced to the emission intensity of Yb^3+ (980 nm) at 0 h.

Values joined by “and” are separate entries in the source; they are usually repeats but may differ in a detail not shown here. Equal entries are not always repeated.

With `C[N+]1(C)CC2C3=NC(=C(c4c(F)c(F)c(F)c(F)c4F)c4ccc5[n]4[Yb+][n]4c(ccc4=C3c3c(F)c(F)c(F)c(F)c3F)=C(c3c(F)c(F)c(F)c(F)c3F)C3=NC(=C5c4c(F)c(F)c(F)c(F)c4F)C=C3)C2C1.[2H]C([2H])([2H])O[P](=O)(OC([2H])([2H])[2H])[Co-]([CH]1C=CC=C1)([P](=O)(OC([2H])([2H])[2H])OC([2H])([2H])[2H])[P](=O)(OC([2H])([2H])[2H])OC([2H])([2H])[2H].[I-]` (stereo not drawn) [Yb-4c], the τobs in data set [1] (DMSO, air-equil.) is 49(2) μs; in data set [1] (DMSO, degassed) it was 50(2) μs; in data set [1] (H2O with 0.1% DMSO, air-equil.), 35 μs and 35(1) μs; in data set [1] (H2O with 0.1% DMSO, degassed) it was 38(2) μs. Moreover, the ΦYb in data set [2] (DMSO, air-equil.) was 5.4(0.2) %; in data set [2] (DMSO, degassed) it was 5.5(0.2) %; in data set [2] (H2O with 0.1% DMSO, air-equil.), 2.3% and 2.3(0.2) %; in data set [2] (H2O with 0.1% DMSO, degassed) it was 2.4(0.1) %. In addition, the “log Po/w” value in data set [3] is 1.33. For the same compound, the photobleaching in data set [4] worked out at 55%.

Turning to `O=C(O)c1ccc(C2=C3C=CC(=N3)C(c3c(F)c(F)c(F)c(F)c3F)=c3ccc4[n]3[Yb+][n]3c2ccc3C(c2c(F)c(F)c(F)c(F)c2F)=C2C=CC(=N2)C=4c2c(F)c(F)c(F)c(F)c2F)cc1.[2H]C([2H])([2H])O[P](=O)(OC([2H])([2H])[2H])[Co-]([CH]1C=CC=C1)([P](=O)(OC([2H])([2H])[2H])OC([2H])([2H])[2H])[P](=O)(OC([2H])([2H])[2H])OC([2H])([2H])[2H]` [Yb-2c], the τobs in data set [1] (DMSO, air-equil.) was 52(2) μs; in data set [1] (DMSO, degassed) it was 52(2) μs; in data set [1] (H2O with 0.1% DMSO, air-equil.) it was 38(1) μs; in data set [1] (H2O with 0.1% DMSO, degassed), 41(2) μs. Further, the ΦYb in data set [2] (DMSO, air-equil.) is 6.2(0.2) %; in data set [2] (DMSO, degassed), 6.0(0.2) %; in data set [2] (H2O with 0.1% DMSO, air-equil.), 2.5(0.2) %; in data set [2] (H2O with 0.1% DMSO, degassed), 2.6(0.2) %. Also, the “log Po/w” value in data set [3] is 1.26.

As to `C1=CC2=C(c3ccc(C[P+](c4ccccc4)(c4ccccc4)c4ccccc4)cc3)c3ccc4[n]3[Yb+][n]3c(ccc3=C(c3ccc(C[P+](c5ccccc5)(c5ccccc5)c5ccccc5)cc3)C3=NC(=C4c4ccc(C[P+](c5ccccc5)(c5ccccc5)c5ccccc5)cc4)C=C3)=C(c3ccc(C[P+](c4ccccc4)(c4ccccc4)c4ccccc4)cc3)C1=N2.[2H]C([2H])([2H])O[P](=O)(OC([2H])([2H])[2H])[Co-]([CH]1C=CC=C1)([P](=O)(OC([2H])([2H])[2H])OC([2H])([2H])[2H])[P](=O)(OC([2H])([2H])[2H])OC([2H])([2H])[2H].[Cl-].[Cl-].[Cl-].[Cl-]` [Yb-3c], the τobs in data set [1] (DMSO, air-equil.) is 49(1) μs; in data set [1] (DMSO, degassed) it was 51(2) μs; in data set [1] (H2O with 0.1% DMSO, air-equil.), 25(1) μs; in data set [1] (H2O with 0.1% DMSO, degassed), 26(2) μs. Also, the ΦYb is recorded as 5.6(0.2) % in data set [2] (DMSO, air-equil.); 5.6(0.2) % in data set [2] (DMSO, degassed); 1.4(0.1) % in data set [2] (H2O with 0.1% DMSO, air-equil.); 1.4(0.1) % in data set [2] (H2O with 0.1% DMSO, degassed). Further, the “log Po/w” value in data set [3] came to 0.24.

Regarding `FC1=C(F)C2=C(c3ccc(C[P+](c4ccccc4)(c4ccccc4)c4ccccc4)cc3)c3c(F)c(F)c4[n]3[Yb+][n]3c(c(F)c(F)c3=C(c3ccc(C[P+](c5ccccc5)(c5ccccc5)c5ccccc5)cc3)C3=NC(=C4c4ccc(C[P+](c5ccccc5)(c5ccccc5)c5ccccc5)cc4)C(F)=C3F)=C(c3ccc(C[P+](c4ccccc4)(c4ccccc4)c4ccccc4)cc3)C1=N2.[2H]C([2H])([2H])O[P](=O)(OC([2H])([2H])[2H])[Co-]([CH]1C=CC=C1)([P](=O)(OC([2H])([2H])[2H])OC([2H])([2H])[2H])[P](=O)(OC([2H])([2H])[2H])OC([2H])([2H])[2H].[Cl-].[Cl-].[Cl-].[Cl-]` [Yb-3], the τobs is recorded as 205(2) μs in data set [1] (DMSO, air-equil.); 213(5) μs in data set [1] (DMSO, degassed); 56(2) μs in data set [1] (H2O with 0.1% DMSO, air-equil.); 58(3) μs in data set [1] (H2O with 0.1% DMSO, degassed). Besides, the “Decay lifetime (τobs)” value in data set [1] is given as 90(2). Also, the ΦYb was 20(1) % in data set [2] (DMSO, air-equil.); 21(2) % in data set [2] (DMSO, degassed); 5.1(0.2) % in data set [2] (H2O with 0.1% DMSO, air-equil.); 5.2(0.3) % in data set [2] (H2O with 0.1% DMSO, degassed). In addition, the “log Po/w” value in data set [3] stood at 0.56.

For `OC[C@H]1O[C@@H](Oc2ccc(C3=C4N=C(C(F)=C4F)C(c4ccc(O[C@@H]5O[C@H](CO)[C@@H](O)[C@H](O)[C@H]5O)cc4)=c4c(F)c(F)c5[n]4[Yb+][n]4c3c(F)c(F)c4C(c3ccc(O[C@@H]4O[C@H](CO)[C@@H](O)[C@H](O)[C@H]4O)cc3)=C3N=C(C(F)=C3F)C=5c3ccc(O[C@@H]4O[C@H](CO)[C@@H](O)[C@H](O)[C@H]4O)cc3)cc2)[C@H](O)[C@@H](O)[C@@H]1O.[2H]C([2H])([2H])O[P](=O)(OC([2H])([2H])[2H])[Co-]([CH]1C=CC=C1)([P](=O)(OC([2H])([2H])[2H])OC([2H])([2H])[2H])[P](=O)(OC([2H])([2H])[2H])OC([2H])([2H])[2H]` [Yb-1], the τobs in data set [1] (DMSO, air-equil.) is listed as 161(5) μs; in data set [1] (DMSO, degassed), 165(4) μs; in data set [1] (H2O with 0.1% DMSO, air-equil.), 95(2) μs; in data set [1] (H2O with 0.1% DMSO, degassed) it was 96(3) μs. For the same compound, the “Decay lifetime (τobs)” value in data set [1] is on record as 100(3). Moreover, the ΦYb was 16(2) % in data set [2] (DMSO, air-equil.); 16(2) % in data set [2] (DMSO, degassed); 7.6(0.4) % in data set [2] (H2O with 0.1% DMSO, air-equil.); 7.7(0.5) % in data set [2] (H2O with 0.1% DMSO, degassed). Moreover, in data set [3], the “log Po/w” value turned out to be 1.32.

The values are drawn from publication PMC5939605, “Highly luminescent, biocompatible ytterbium(III) complexes as near-infrared fluorophores for living cell imaging” (Chemical Science, 2018).
